Values of other authors as cited in patent US20140342022A1, “Natural Product Against Fatigue” (priority 2013, published 2014).

Tested on: EBV-EA activation
Conditions: latently infected cells

## O=c1c(O)c(-c2ccc(O)c(O)c2)oc2cc(O)cc(O)c12 [quercetin]
  EBV-EA activation: inhibits
